Reference: US5545547A, “Enzymes as agricultural chemical adjuvants” (priority 1992, dated 1996)
Values belong to the molecule of their own block, whether it stands above or below them.

How the values were obtained:
soybean leaf discs = assay: Uptake of radiolabeled agricultural chemicals into leaf discs; format: in vitro ADME
Description: Leaf discs (1 cm diameter) were prepared from 9-13 day old soybean plants, and planed them on a nitrocellulose paper that was presoaked with 100 ug/ml stocptomycin in a petri dish. Radioactive chemicals were dissolved in 100 mM sodium phosphate buffer containing 0.05% TRITON X-100 surfactant [drawing 1] where n is an integer from 9 to 10 In addition to TRITON surfactant, (^14 C) uracil solution contained 0.4% ethanol, (^14 C) atrazine contained 10% ethanol (^14 C) indole acetic acid contained 2% ethanol and (^14 C) urea contained 0.2% ethanol. 5 ul of the radioactive chemical solution (9/uci/ml) was applied on the leaf disc and incubated for 5-7 hr at room temperature. After the incubation, leaf discs were rinsed 3 times with 0.025% TRITON X-100 surfactant solution and transferred into separate scintillation vials. Radioactivity taken up by each leaf disc was determined by a scintillation counter after adding 10 ml of Ecolite scintillation fluid into each vial. Ten leaf discs were used for each data point in all experiments. All radioactive chemicals were obtained from Amersham (U.S.A.). The specific activities of the chemicals were as follows:
Cutinase enzyme same as before.
Macerating enzyme, GC219, is an enzyme mixture sold by Genencor which comprises of cellulase, pectinase and hemicellulase.

Turnip = assay: Greenhouse multispecies herbicide screen with/without P. mendocina enzyme; format: in vivo; details: two weeks after treatment
Description: (§1) Several plant species including weeds and crops are used in these experiments.
(§2) A number of herbicides from various chemical classes were compared in a multispecies screen for percent chlorosis, necrosis and vigor reduction both with and without application of the enzyme from Pseudomonas mendocina ATCC 53552 described earlier. The herbicides were applied to various plants at the manufacturers recommended doses and at 10% and 40% of the recommended dose. Two different enzyme concentrations were used: 0.5 mg/ml (HE) and 0.05 mg/ml (LE) and applied at the rate of 40 gallons/acre. All spraying solutions were at pH 10 and contained 100 mm sodium phosphate each. Ratings were done at 6 and 12 days after the treatment. All the experiments were carried out in a greenhouse.
(§3) Chlorosis--figures represent percent of plants showing chlorosis.
(§4) Necrosis--figures represent percent of plants showing necrosis.
(§5) Vigor--figures represent percent of plants showing decreased vigor.
(§6) Phytotoxicity--figures represent the average percent of chlorosis, necrosis, and vigor for a given sample.
(§7) The method of Example 1 was used except that the enzyme was applied 2 hours prior to administering the agricultural chemical with the following results. Ratings were done two weeks after treatment

Soybeans = assay: as above; format: in vivo; details: two weeks after treatment
Description: as §1, §2, §3, §4, §5, §6, §7

Trichoderma reesei QM6A = assay: Fungicide uptake in soybean plants, leaf extract rated for inhibition of fungal growth; parameters: key: -no inhibition; +weak inhibition; ++=good inhibition; +++=strong inhibition
Description: The difoliate leaflets of 9-13 day old soybeam plants were treated with solutions of cutinase (100 ug/ml), BENOMYL fungicide [1-(butylcarbamoyl)-2-benzimidazolecarbamic acid methyl ester] (1 mg/ml), and GC219 (12.6 mg/ml) alone and BENOMYL fungicide [1-(butylcarbamoyl)-2-benzimidazolecarbamic acid methyl ester] plus enzymes. The solutions were dissolved in 100 mM sodium phosphate, pH 7 containing 0.5% TRITON surfactant [drawing 2] where n is an integer from 9 to 10 X-100. In addition to TRITON X-100 surfactant, [drawing 3] where n is an integer from 9 to 10 the BENOMYL fungicide [1-(butylcarbamoyl)-2-benzimidazolecarbamic acid methyl ester] contained 5% Dimethyl formamide. For each experiment 100 ul of solution was applied in 5 ul droplets to each difoliate leaflet. Duplicate plants were treated in this manner. The treated plants were incubated for two hours under normal greenhouse conditions. Identical solutions as those applied to the plants were also incubated for two hours to assure chemical stability under greenhouse conditions. After the incubation, the treated leaves were cut at the petiole and rinsed with a 0.05% TRITON X-100 surfactant [drawing 4] where n is an integer from 9 to 10 solution. Both difoliates were then ground with a mortar and pestle with 1.5 ml of a 100 mM sodium phosphate, pH 7 buffer. The extract was centrifuged and the supernatant was sterile filtered through a 0.45 um disc. The supernatant was then added to CMA media containing 2% agar to yield a final volume of 10 mls. 5 mls was them poured into a single well in a 6 well culture plate. Serial dilutions were made for each solution to achieve 1:1, 1:2 and 1:4 dilution of the plant extract in the agar.
Once the agar was solidified each well was innoculated with spores of Trichoderma reesei QM6A strain. The plates were incubated at 30° C. for 24 hours and the growth of T. reesei was rated.

[1] = test system: Pseudomonas mendocina ATCC 53552 lipase, crude preparation of Example 1(C) (includes Lipase 1 and Lipase 2); assay: Binding of p-nitrophenyl substrates and turnover kinetics, crude lipase preparation; format: biochemical; details: 0.1M Tris, 0.1 wt. Triton X-100, pH 8.0, 25° C.
Description: The recovered filtrate from the Amicon unit was concentrated to a volume of 3 liters on an Amicon ultrafiltration unit with two Romicon Pm 10 modules. The concentrated material was then dialyzed with 20 liters of 0.01M phosphate buffer, pH 7.5, to remove salts and color. Recovery at this stage averaged about 80%. Total activity for this crude preparation was 8.68×10^6 units. A unit of lipase activity is defined as the amount of enzyme which results in an increase of absorbance at 415 nm of 1.0/minute when incubated at 25° C. with 2.0 mM p-nitrophenylbutyrate in 0.1M pH 8.0 Tris-HCl buffer containing 0.1 wt. adjuvant Triton X-100.
The binding of three p-nitrophenyl substrates and the turnover kinetics were studied for the crude preparation of Example 1(C), where reaction conditions were 0.1M Tris with 0.1 wt. adjuvant Triton X-100, pH 8.0, at 25° C. The substrates were p-nitrophenyl caprylate, p-nitrophenyl laurate, and p-nitrophenyl palmitate, and the data is set out in Table

Background uptake, Radioactivity (cpm) (soybean leaf discs): 1292 cpm
Structure (SMILES): O=C(O)Cc1c[nH]c2ccccc12 [Indole Acetic Acid]

Km [1]: 214 µM
Vmax [1]: 802 μmole/min/mg protein
Structure (SMILES): CCCCCCCC(=O)Oc1ccc([N+](=O)[O-])cc1 [PNPC, p-nitrophenyl caprylate]

Km [1]: 167 µM
Vmax [1]: 214 μmole/min/mg protein
Structure (SMILES): CCCCCCCCCCCC(=O)Oc1ccc([N+](=O)[O-])cc1 [PNPL, p-nitrophenyl laurate]

More lines, now with the values behind:

Structure (SMILES): CCNc1nc(Cl)nc(NC(C)C)n1 [ATRAZINE, Atrazine]
Uptake, Radioactivity (cpm) (soybean leaf discs; Herbicide table, atrazine, without any addition of protein): 24007 ± 3984 cpm
Uptake, Radioactivity (cpm) (soybean leaf discs; Herbicide table, pH 7.0, Cutinase 100 ug/ml, Active Enzyme): 42684 ± 2333 cpm
Uptake, Radioactivity (cpm) (soybean leaf discs; Herbicide table, pH 7.0, Cutinase 100 ug/ml, Inactive Protein Control (A126)): 24832 ± 2834 cpm
Uptake, Radioactivity (cpm) (soybean leaf discs; Herbicide table, pH 7.0, Cutinase 200 ug/ml, Active Enzyme): 54133 ± 2874 cpm
Uptake, Radioactivity (cpm) (soybean leaf discs; Herbicide table, pH 7.0, Cutinase 200 ug/ml, Inactive Protein Control (A126)): 31097 ± 2959 cpm
CHL (chlorosis) (Turnip; ATRAZINE 10% dose, High Enzyme): 25%
NEC (necrosis) (Turnip; ATRAZINE 10% dose, High Enzyme): 25%
PHY (phytotoxicity) (Turnip; ATRAZINE 10% dose, High Enzyme): 25%
VIG (vigor) (Turnip; ATRAZINE 10% dose, High Enzyme): 25%
CHL (chlorosis) (Turnip; ATRAZINE 10% dose, Low Enzyme): 50%
NEC (necrosis) (Turnip; ATRAZINE 10% dose, Low Enzyme): 38%
PHY (phytotoxicity) (Turnip; ATRAZINE 10% dose, Low Enzyme): 46%
VIG (vigor) (Turnip; ATRAZINE 10% dose, Low Enzyme): 50%
CHL (chlorosis) (Turnip; ATRAZINE 10% dose, No Enzyme): 38%
NEC (necrosis) (Turnip; ATRAZINE 10% dose, No Enzyme): 23%
PHY (phytotoxicity) (Turnip; ATRAZINE 10% dose, No Enzyme): 37%
VIG (vigor) (Turnip; ATRAZINE 10% dose, No Enzyme): 50%
CHL (chlorosis) (Turnip; ATRAZINE 40% dose, High Enzyme): 75%
NEC (necrosis) (Turnip; ATRAZINE 40% dose, High Enzyme): 88%
PHY (phytotoxicity) (Turnip; ATRAZINE 40% dose, High Enzyme): 84%
VIG (vigor) (Turnip; ATRAZINE 40% dose, High Enzyme): 88%
CHL (chlorosis) (Turnip; ATRAZINE 40% dose, Low Enzyme): 90%
NEC (necrosis) (Turnip; ATRAZINE 40% dose, Low Enzyme): 90%
PHY (phytotoxicity) (Turnip; ATRAZINE 40% dose, Low Enzyme): 90%
VIG (vigor) (Turnip; ATRAZINE 40% dose, Low Enzyme): 90%
CHL (chlorosis) (Turnip; ATRAZINE 40% dose, No Enzyme): 70%
NEC (necrosis) (Turnip; ATRAZINE 40% dose, No Enzyme): 70%
PHY (phytotoxicity) (Turnip; ATRAZINE 40% dose, No Enzyme): 74%
VIG (vigor) (Turnip; ATRAZINE 40% dose, No Enzyme): 83%
CHL (chlorosis) (Soybeans; ATRAZINE 10% dose, High Enzyme): 55%
NEC (necrosis) (Soybeans; ATRAZINE 10% dose, High Enzyme): 18%
PHY (phytotoxicity) (Soybeans; ATRAZINE 10% dose, High Enzyme): 12%
VIG (vigor) (Soybeans; ATRAZINE 10% dose, High Enzyme): 13%
CHL (chlorosis) (Soybeans; ATRAZINE 10% dose, Low Enzyme): 38%
NEC (necrosis) (Soybeans; ATRAZINE 10% dose, Low Enzyme): 58%
PHY (phytotoxicity) (Soybeans; ATRAZINE 10% dose, Low Enzyme): 48%
VIG (vigor) (Soybeans; ATRAZINE 10% dose, Low Enzyme): 48%
CHL (chlorosis) (Soybeans; ATRAZINE 10% dose, No Enzyme): 10%
NEC (necrosis) (Soybeans; ATRAZINE 10% dose, No Enzyme): 33%
PHY (phytotoxicity) (Soybeans; ATRAZINE 10% dose, No Enzyme): 34%
VIG (vigor) (Soybeans; ATRAZINE 10% dose, No Enzyme): 50%
CHL (chlorosis) (Soybeans; ATRAZINE 40% dose, High Enzyme): 80%
NEC (necrosis) (Soybeans; ATRAZINE 40% dose, High Enzyme): 88%
PHY (phytotoxicity) (Soybeans; ATRAZINE 40% dose, High Enzyme): 85%
VIG (vigor) (Soybeans; ATRAZINE 40% dose, High Enzyme): 88%
CHL (chlorosis) (Soybeans; ATRAZINE 40% dose, Low Enzyme): 100%
NEC (necrosis) (Soybeans; ATRAZINE 40% dose, Low Enzyme): 100%
PHY (phytotoxicity) (Soybeans; ATRAZINE 40% dose, Low Enzyme): 100%
VIG (vigor) (Soybeans; ATRAZINE 40% dose, Low Enzyme): 100%
CHL (chlorosis) (Soybeans; ATRAZINE 40% dose, No Enzyme): 55%
NEC (necrosis) (Soybeans; ATRAZINE 40% dose, No Enzyme): 63%
PHY (phytotoxicity) (Soybeans; ATRAZINE 40% dose, No Enzyme): 58%
VIG (vigor) (Soybeans; ATRAZINE 40% dose, No Enzyme): 55%

Structure (SMILES): CCCCNC(=O)n1c(NC(=O)OC)nc2ccccc21 [BENOMYL fungicide, 1-(butylcarbamoyl)-2-benzimidazolecarbamic acid methyl ester]
Inhibition of Fungal Growth (Trichoderma reesei QM6A; BENOMYL alone (1 mg/ml on leaves), 1:1 dilution of plant extract): -
Inhibition of Fungal Growth (Trichoderma reesei QM6A; BENOMYL alone, 1:2 dilution): -
Inhibition of Fungal Growth (Trichoderma reesei QM6A; BENOMYL alone, 1:4 dilution): -
Inhibition of Fungal Growth (Trichoderma reesei QM6A; Cutinase (100 ug/ml) and BENOMYL, 1:1 dilution): +++
Inhibition of Fungal Growth (Trichoderma reesei QM6A; Cutinase and BENOMYL, 1:2 dilution): ++
Inhibition of Fungal Growth (Trichoderma reesei QM6A; Cutinase and BENOMYL, 1:4 dilution): +
Inhibition of Fungal Growth (Trichoderma reesei QM6A; GC219 (12.6 mg/ml) and BENOMYL, 1:1 dilution): ++
Inhibition of Fungal Growth (Trichoderma reesei QM6A; GC219 and BENOMYL, 1:2 dilution): +
Inhibition of Fungal Growth (Trichoderma reesei QM6A; GC219 and BENOMYL, 1:4 dilution): -

Structure (SMILES): CN(C)C(=O)Nc1ccc(Cl)c(Cl)c1 [Diuron, diuron]
Uptake, Radioactivity (cpm) (soybean leaf discs; Herbicide table, Diuron, without any addition of protein): 5739 ± 1376 cpm
Uptake, Radioactivity (cpm) (soybean leaf discs; Herbicide table, pH 10, Cutinase 200 ug/ml, Active Enzyme): 8592 ± 803 cpm
Uptake, Radioactivity (cpm) (soybean leaf discs; Herbicide table, pH 10, Cutinase 200 ug/ml, Inactive Protein Control (A126)): 6878 ± 2126 cpm

Structure (SMILES): CCCCCCCCCCCCCCCC(=O)Oc1ccc([N+](=O)[O-])cc1 [PNPP, p-nitrophenyl palmitate]
Km [1]: 183 µM
Vmax [1]: 112 μmole/min/mg protein

Structure (SMILES): O=c1cc[nH]c(=O)[nH]1 [Uracil, uracil]
Uptake, Radioactivity (cpm) (soybean leaf discs; pH 7): 2090 ± 549 cpm
Uptake, Radioactivity (cpm) (soybean leaf discs; pH 10): 507 ± 162 cpm

Structure (SMILES): NC(N)=O [Urea, urea]
Uptake, Radioactivity (cpm) (soybean leaf discs; pH 7): 785 ± 141 cpm
Uptake, Radioactivity (cpm) (soybean leaf discs; pH 10): 398 ± 43 cpm
